Results as given in article PMC10008000 (Iranian Journal of Pharmaceutical Research : IJPR, 2023).

How the values were obtained:
[1] = tested on: MCF-7 breast cancer cells; experiment: MTT antitumor assay, MCF-7; assay type: cell-based; conditions: Homo sapiens, MCF7, 48 h, read-out: IC50 (μM) ± SD MCF-7
HT-29 colon cancer cells = experiment: MTT antitumor assay, HT-29; assay type: cell-based; conditions: Homo sapiens, HT-29, 48 h, read-out: IC50 (μM) ± SD HT-29
A-549 lung cancer cells = experiment: MTT antitumor assay, A-549; assay type: cell-based; conditions: Homo sapiens, A549, 48 h, read-out: IC50 (μM) ± SD A-549
[2] = MTT assay, normal fibroblast cell line HDF; assay type: cell-based; conditions: human, HDF normal fibroblast cells
EGFR tyrosine kinase = EGFR tyrosine kinase (Homo sapiens, UniProt P00533); experiment: EGFR Kinase Assay Kit / Kinase-Glo luminescence kinase assay; assay type: biochemical
Chain of EGFR tyrosine kinase (P00533 25-1210): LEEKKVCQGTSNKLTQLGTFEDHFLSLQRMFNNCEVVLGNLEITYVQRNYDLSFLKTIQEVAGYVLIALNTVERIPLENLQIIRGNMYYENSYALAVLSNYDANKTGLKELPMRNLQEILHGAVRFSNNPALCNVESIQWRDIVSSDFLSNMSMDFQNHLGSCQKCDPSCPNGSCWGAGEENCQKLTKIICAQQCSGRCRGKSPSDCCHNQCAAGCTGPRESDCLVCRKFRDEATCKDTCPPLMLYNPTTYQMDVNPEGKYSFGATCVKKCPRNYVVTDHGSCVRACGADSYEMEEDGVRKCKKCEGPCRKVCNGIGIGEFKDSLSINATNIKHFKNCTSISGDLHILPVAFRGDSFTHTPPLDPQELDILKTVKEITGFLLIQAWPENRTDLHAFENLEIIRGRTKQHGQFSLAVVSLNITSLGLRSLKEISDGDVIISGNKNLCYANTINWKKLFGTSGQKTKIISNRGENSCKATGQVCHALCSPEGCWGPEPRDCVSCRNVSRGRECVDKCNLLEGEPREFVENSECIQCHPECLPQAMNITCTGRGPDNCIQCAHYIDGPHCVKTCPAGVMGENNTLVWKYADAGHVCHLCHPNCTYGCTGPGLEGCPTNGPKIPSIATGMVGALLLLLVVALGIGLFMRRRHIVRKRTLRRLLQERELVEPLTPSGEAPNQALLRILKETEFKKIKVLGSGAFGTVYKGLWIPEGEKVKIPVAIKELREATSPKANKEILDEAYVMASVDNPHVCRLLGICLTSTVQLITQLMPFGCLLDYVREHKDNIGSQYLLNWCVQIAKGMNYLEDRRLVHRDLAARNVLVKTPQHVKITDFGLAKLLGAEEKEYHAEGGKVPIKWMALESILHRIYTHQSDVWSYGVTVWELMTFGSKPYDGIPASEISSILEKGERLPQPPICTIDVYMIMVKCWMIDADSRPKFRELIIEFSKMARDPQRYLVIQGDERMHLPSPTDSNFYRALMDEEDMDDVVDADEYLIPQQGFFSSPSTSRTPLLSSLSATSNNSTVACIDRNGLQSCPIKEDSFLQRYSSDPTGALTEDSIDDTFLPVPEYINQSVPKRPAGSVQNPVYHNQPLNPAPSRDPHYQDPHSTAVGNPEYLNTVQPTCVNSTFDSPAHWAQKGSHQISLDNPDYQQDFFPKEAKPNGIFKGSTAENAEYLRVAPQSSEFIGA

| Compound | IC50 [1] [µM] | IC50 (HT-29 colon cancer cells) [µM] | IC50 (A-549 lung cancer cells) [µM] | IC50 at 48 h [2] [µM] | IC50 (EGFR tyrosine kinase) [µM] |
| --- | --- | --- | --- | --- | --- |
| Cc1ccc(Nc2nc(N)nc3ccc(NCc4ccccc4)cc23)cc1 [10g, N^6-benzyl-N^4-p-methylphenyl quinazoline-2,4,6-triamine] | ≥ 100 | ≥ 100 | ≥ 100 | ≥ 100 | – |
| Cc1ccc(CNc2ccc3nc(N)nc(Nc4ccccc4)c3c2)cc1 [10d, N^6-(4-methylbenzyl)-N^4-phenylquinazoline-2,4,6-triamine] | ≥ 100 | ≥ 100 | 0.126 ± 0.019 | ≥ 100 | 45.5 |
| Nc1nc(Nc2ccc(F)cc2)c2cc(NCc3ccccc3)ccc2n1 [10l, N^6-benzyl-N^4-(4-fluorophenyl) quinazoline-2,4,6-triamine] | ≥ 100 | ≥ 100 | ≥ 100 | ≥ 100 | – |
| COc1ccc(Nc2nc(N)nc3ccc(NCc4ccccc4)cc23)cc1 [10h, N^6-benzyl-N^4-(4-methoxyphenyl) quinazoline-2,4,6-triamine] | ≥ 100 | ≥ 100 | ≥ 100 | ≥ 100 | – |
| COc1cccc2c1C(=O)c1c(O)c3c(c(O)c1C2=O)C[C@@](O)(C(=O)CO)C[C@@H]3O[C@H]1C[C@H](N)[C@H](O)[C@H](C)O1 [Doxorubicin, reference compound] | 4.07 ± 0.38 | 56.3 ± 0.9 | 4.3 ± 0.3 | ≥ 100 | – |
| COc1ccc(CNc2ccc3nc(N)nc(Nc4ccccc4)c3c2)cc1 [10e, N^6-(4-methoxybenzyl)-N^4-phenylquinazoline-2,4,6-triamine] | 63.5 ± 1.39 | 13.5 ± 1.89 | 15 ± 0.9 | ≥ 100 | 3.53 |

Next, values leading:

| IC50 [1] [µM] | IC50 (HT-29 colon cancer cells) [µM] | IC50 (A-549 lung cancer cells) [µM] | IC50 at 48 h [2] [µM] | IC50 (EGFR tyrosine kinase) [µM] | Compound |
| --- | --- | --- | --- | --- | --- |
| 18.2 ± 2.6 | 28.1 ± 0.69 | 73.3 ± 1.5 | ≥ 100 | – | C#Cc1cccc(Nc2ncnc3cc(OCCOC)c(OCCOC)cc23)c1 [Erlotinib, reference compound] |
| ≥ 100 | ≥ 100 | ≥ 100 | ≥ 100 | – | Nc1nc(Nc2ccccc2)c2cc(NCc3ccccc3)ccc2n1 [10a, N^6-benzyl-N^4-phenylquinazoline-2,4,6-triamine] |
| ≥ 100 | ≥ 100 | ≥ 100 | ≥ 100 | – | Nc1nc(Nc2ccccc2)c2cc(NC(=O)c3ccc(F)cc3)ccc2n1 [10p, N-(2-amino-4-(phenylamino)quinazolin-6-yl)-4-fluorobenzamide] |
| ≥ 100 | ≥ 100 | ≥ 100 | ≥ 100 | – | Cc1ccc(C(=O)Nc2ccc3nc(N)nc(Nc4ccccc4)c3c2)cc1 [10n, N-(2-amino-4-(phenylamino)quinazolin-6-yl)-4-methylbenzamide] |
